Patent US11261429B2, “Enriched and expanded human cord blood stem cells for treatment of hematological disorders” (ICAHN SCHOOL OF MEDICINE AT MOUNT SINAI, priority 2013, dated 2022)
“And” between values parts separate entries of the source, which are not always exact repeats. Identical values can stand only once.

Experiments:
CD34+CD90+ cells = test: Cell cycle analysis by BrdU labeling; type: cell-based, human
Protocol: The cell cycle status of the cultured CD34+CD90+ cells was assessed using the FITC-BrdU Kit (BD Pharmingen) according to the manufacturer's instructions. CB CD34+ cells cultured for 7 days under control conditions in the presence of VPA were subsequently pulsed with BrdU for 2.5 hours. […] After permeabilization, cells were treated with 30 μg of DNAse for 30 minutes at 37° C. and then stained with an FITC-conjugated anti-BrdU antibody and 7AAD. The cell cycle status of CD34+CD90+ gated cells was then documented using a FAC-SCanto II Flow Cytometer with FACSDiva software (BD Biosciences).

ALDH activity = ALDH activity (Aldefluor) in expanded CB CD34+ cells; type: cell-based, human; conditions: cytokines, 7 days
Description: Increased ALDH activity is a characteristic of primitive hematopoietic cells and cancer stem cells (Hess et al., Functional Characterization of Highly Purified Human Hematopoietic Repopulating Cells Isolated According to Aldehyde Dehydrogenase Activity,” Blood 104:1648-1655 (2004); Lioznov et al., “Aldehyde Dehydrogenase Activity as a Marker for the Quality of Hematopoietic Stem Cell Transplants,” Bone Marrow Transplant 35:909-914 (2005); Storms et al., “Distinct Hematopoietic Progenitor Compartments are Delineated by the Expression of Aldehyde Dehydrogenase and CD34,” Blood 106:95-102 (2005); Aguila et al., “SALL4 is a Robust Stimulator for the Expansion of Hematopoietic Stem Cells,” Blood 118:576-585 (2011), which are hereby incorporated by reference in their entirety). To identify cell populations with high ALDH activity, an Aldefluor kit (StemCell Technologies Inc.) was used according to the manufacturer's instructions, Cells (1×10^6/ml) were suspended in assay buffer, then half of the cells were added to the Aldefluor substrate (test sample) and the remaining half was added to DEAB inhibitor (control sample). The test and control samples were incubated for 40 minutes at 37° C. Cells were subsequently stained with CD34-APC and/or CD117-PE mAbs or an isotype-matched IgG for an additional 20 minutes. Cells were washed and analyzed by a BD FACSCanto II Flow Cytometer.

hTERT = test: qPCR of pluripotency genes in CD34+ cells; type: cell-based, human; conditions: VPA-treated CD34+ cells
Protocol: Total RNA was extracted from the human ES cell line 89 (WA09; WiCell Research Institute Inc., Madison, Wis., USA), PCs, reisolated CD34+ cells from control cultures or cultures containing VPA in SF and SC media using TRIzol and an RNeasy kit from QIAGEN, CA. Total RNA (0.5-1.0 μg) was reverse transcribed into cDNA using an RNA to cDNA EcoDry Premix kit (Clontech). The primer sequences are listed in Table 6. qPCR was performed using SYBR Green (Thermo Fisher Scientific) and the Realplex thermocycler (Eppendorf). All experiments were performed in triplicate, and non-template controls (lacking cDNA template were included in each assay. GAPDH served as an internal standard. The amplicons were run on a 2% agarose gel with a 50-bp-size (DNA ladder) marker.

NSG mice = type: in vivo
Protocol: As described previously, NSG mice were sublethally irradiated with 300 cGy 4 hours prior to the infusion of PCs (2×10^5), and CD34+ cells re-isolated after a week of culture under control conditions or cultures containing VPA in the presence or absence of cytokines were injected into NSG mice via the tail vein (Milhem et al., “Modification of Hematopoietic Stem Cell Fate by 5aza 2′deoxycytidine and Trichostatin A,” Blood 103:4102-4110 (2004); Araki et al., “Expansion of Human Umbilical Cord Blood SCID-Repopulating Cells Using Chromatin-Modifying Agents,” Exp. Hematol. 34:140-149 (2006); Araki et al., “Chromatin-Modifying Agents Permit Human Hematopoietic Stem Cells to Undergo Multiple Celt Divisions While Retaining Their Repopulating Potential,” Blood 109:3570-3578 (2007), which are hereby incorporated by reference in their entirety). […] BM cells from each mouse were analyzed for the presence of cells expressing human CD45-PECy7 or APC, CD34-APC or FITC, CD36-APC, CD33-PECy7, CD14-FITC, CD19-PE, CD41-FITC, CD71-FITC, and glycophorin A-PE (GPA-PE). The presence of at least 0.1% human CD45+ cells in the marrow of each recipient mouse was considered indicative of donor human hematopoietic engraftment (Milhem et al., “Modification of Hematopoietic Stem Cell Fate by 5aza 2′deoxycytidine and Trichostatin A,” Blood 103:4102-4110 (2004); Araki et al., “Expansion of Human Umbilical Cord Blood SCID-Repopulating Cells Using Chromatin-Modifying Agents,” Exp. Hematol. 34:140-149 (2006); Araki et al., “Chromatin-Modifying Agents Permit Human Hematopoietic Stem Cells to Undergo Multiple Cell Divisions While Retaining Their Repopulating Potential,” Blood 109:3570-3578 (2007); Chaurasia et al., “Chromatin-Modifying Agents Promote the Ex vivo Production of Functional Human Erythroid Progenitor Cells,” Blood 117:4632-4641 (2011), which are hereby incorporated by reference in their entirety). BM cells (2×10^6) from the primary recipient NSG mice were reinfused into sublethally irradiated secondary NSG recipient mice. Mice were sacrificed 15-16 weeks after transplantation, and BM cells were stained with mAbs and analyzed by flow cytometry for evidence of human chimerism as described above.

[1] = VPA alone (no cytokines), SF, 12-13 weeks
[2] = cells cultured with cytokines plus VPA, SF, 13-14 weeks after transplantation

CCCC(CCC)C(=O)O [VPA, valproic acid] was tested, and the “percent CD34+CD90+ cells, flow cytometric analysis (FIG. 4A)” value (CD34+CD90+ cells; SF culture with VPA 7 days, one of 3 representative experiments) was 82.9%, the “CD34+CD90+ cells in G0/G1” value (CD34+CD90+ cells; day 7, BrdU pulse 2.5 hours) was 23.2%±13.8% and the “CD34+CD90+ cells in G2/M” value (CD34+CD90+ cells; day 7, BrdU pulse 2.5 hours) was 18.0%±1.2%. The “CD34+CD90+ cells in S phase” value (CD34+CD90+ cells; day 7, BrdU pulse 2.5 hours) was 29.4%±7.9%, the “Frequency of ALDH+ cells” value (ALDH activity; SC cultures) was 41.7 ± 3.3^A % and the “Frequency of ALDH+CD34+ cells” value (ALDH activity; SC cultures) was 26.1 ± 5.5^A %. The “Frequency of ALDH+CD34+CD117+ cells” value (ALDH activity; SC cultures) was 29.4 ± 1.4^A %, the “Frequency of ALDH+ cells” value (ALDH activity; SF cultures) was 86.6 ± 7.4^A % and the “Frequency of ALDH+CD34+ cells” value (ALDH activity; SF cultures) was 71.1 ± 3.1^A %. The “Frequency of ALDH+CD34+CD117+ cells” value (ALDH activity; SF cultures) was 51.3 ± 4.0^A %, the hTERT expression (hTERT) was “not upregulated” and the “% Human Cell Engraftment in Primary NSG Mice, CD14” value (NSG mice; [1]) was 2.1 ± 0.2 %. For the same compound, the “% Human Cell Engraftment in Primary NSG Mice, CD19” value (NSG mice; [1]) was 1.9 ± 1.1%, the “% Human Cell Engraftment in Primary NSG Mice, CD33” value (NSG mice; [1]) was 3.5 ± 0.6 % and the “% Human Cell Engraftment in Primary NSG Mice, CD34” value (NSG mice; [1]) was 1.6 ± 0.4 %. For the same compound, the “% Human Cell Engraftment in Primary NSG Mice, CD41” value (NSG mice; [1]) was 0.90 ± 0.6%, the “% Human Cell Engraftment in Primary NSG Mice, CD45” value (NSG mice; [1]) was 12.5%±5.0% and 12.5 ± 2.2% and the “% Human Cell Engraftment in Primary NSG Mice, GPA” value (NSG mice; [1]) was 9.8 ± 0.8%. For the same compound, the “CD45+CD34+ cells in marrow of primary NSG mice” value (NSG mice; [2]) was 13.0%±8.7%, the “human CD45+ cell chimerism in marrow of primary NSG mice” value (NSG mice; [2]) was 32.2%±11.3% and 32.3±10.2% and the “donor-derived CD34+ cells coexpressing CD184 in marrow” value (NSG mice; cells cultured with cytokines plus VPA, SF, primary NSG mice) was 9.9%±9.6%. The “blood cancer or teratomas in primary or secondary recipients” value (NSG mice; mouse, in vivo) was “None of the primary or secondary recipients of marrow cells receiving VPA-treated grafts developed evidence of blood cancer or developed teratomas”.
